From ChEMBL document CHEMBL4190398, “Detailed Exploration around 4-Aminoquinolines Chemical Space to Navigate the Lysine Methyltransferase G9a and DNA Methyltransferase Biological Spaces” (J Med Chem, 2018) come the findings set out here.

Where only a bound is given, the exact number is not on record here.

One data set relates to THLE-2. The data set can be described thus: Cytotoxicity against human THLE2 cells assessed as reduction in cell viability after 72 hrs by MTS assay. As to conditions: thle-2, 72 h. The format is cell-based.
Data set [1] is described as follows: Metabolic stability in human liver microsomes assessed as parent compound remaining at 1 uM preincubated for 10 mins followed by NADP addition measured after 20 mins by LC-MS/MS analysis. The format is ADME, microsome. Particulars: read-out: Stability.
The nature of data set [2]: Metabolic stability in mouse liver microsomes assessed as parent compound remaining at 1 uM preincubated for 10 mins followed by NADP addition measured after 20 mins by LC-MS/MS analysis. Format: ADME, microsome. As to conditions: read-out: Stability. A general note: Microsomes from liver hold many membrane-bound enzymes, among them those of drug oxidation.

By LC50 is commonly meant the concentration lethal to half of the exposed cells or organisms. On to `CCc1ccc(-c2cc(NC3CCN(C)CC3)c3cc(OC)c(OCCCN4CCCC4)cc3n2)o1`, for which the LC50 in the data set on THLE-2 is reported as 2320 nM.

Consider `COc1cc2c(NC3CCN(C)CC3)cc(-c3ccc(C)o3)nc2cc1OCCCN1CCCC1`, for which, in the data set on THLE-2, the LC50 is recorded as 1780 nM.

For `COc1cc2c(NC3CCN(C)CC3)cc(-c3ccc(C)o3)nc2cc1OCC1CCN(C)CC1`, the LC50 with THLE-2 came out at 1030 nM.

Regarding `COc1cc2c(NCC3CCN(C(C)C)CC3)cc(-c3ccc(C)o3)nc2cc1OCCCN1CCCC1`, in the data set on THLE-2, the LC50 was found to be 777 nM.

On to `CCc1ccc(-c2cc(NC3CCC34CCN(C)CC4)c3cc(OC)c(OCCCN4CCCC4)cc3n2)o1` (stereo not drawn), for which the LC50 in the data set with THLE-2 was found to be 517 nM.

For the compound `COc1cc2c(NC3CC4(CCN(C(C)C)CC4)C3)cc(-c3ccc(C)o3)nc2cc1OCCCN1CCCC1`, in the data set with THLE-2, the LC50 came out at 841 nM.

Take `CCc1ccc(-c2cc(NC3CCN(C)CC3)c3cc(OC)c(OCCCN4CCC5(CC5)C4)cc3n2)o1`: the LC50 in the data set with THLE-2 turned out to be 2040 nM.

With `COc1cc2c(NC3CC4CCC(C3)N4C)cc(-c3ccc(C)o3)nc2cc1OCCCN1CCCC1` (stereo not drawn), the remaining at 20 min, 1 µM worked out at 60.3% in data set [1] and 43.9% in data set [2]. The LC50 in the data set on THLE-2 amounted to 4150 nM.

Take `COc1cc2c(NC3CC4(CCN(C)CC4)C3)cc(-c3ccc(C)o3)nc2cc1OCCCN1CCCC1`: the remaining at 20 min, 1 µM in data set [1] is 68.6%; in data set [2], 40.6%. For the same compound, the LC50 in the data set on THLE-2 is on record as 992 nM.

Turning to `COc1cc2c(NC3C4CCC3CN(C)C4)cc(-c3ccc(C)o3)nc2cc1OCCCN1CCCC1` (stereo not drawn), the LC50 in the data set on THLE-2 amounted to 527 nM.

For `CCc1ccc(-c2cc(NC3CCN(C)CC3)c3cc(OC)c(OCCCN(C)C)cc3n2)o1`, the median lethal concentration (LC50) in the data set on THLE-2 worked out at 3520 nM.

For the compound `COc1cc2c(NCC3CCN(C)CC3)cc(-c3ccc(C)o3)nc2cc1OCCCN1CCCC1`, the LC50 in the data set with THLE-2 is listed as 1300 nM.

In the case of `COc1cc2c(NC3CCN(C)CC3)cc(-c3ccc(C)o3)nc2cc1OCC1CCNCC1`, in the data set with THLE-2, the LC50 worked out at 24800 nM.

Consider `COc1cc2c(NC3CCC34CCN(C)CC4)cc(-c3ccc(C)o3)nc2cc1OCCCN1CCCC1` (stereo not drawn), for which the remaining at 20 min, 1 µM in data set [1] came to 80.4%; in data set [2], 53.3%. Also, the LC50 in the data set with THLE-2 came out at 731 nM.

Consider `CCc1ccc(-c2cc(NC3CCN(C)CC3)c3cc(OC)c(OCCCN4CCCCC4)cc3n2)o1`, for which the LC50 in the data set on THLE-2 turned out to be 1380 nM.

Take `CCc1ccc(-c2cc(NCC3C4CCC3CN(C)C4)c3cc(OC)c(OCCCN4CCCC4)cc3n2)o1` (stereo not drawn): the LC50 in the data set on THLE-2 was less than 164 nM.

Regarding `COc1cc2c(NC3CCC34CCN(C)C4)cc(-c3ccc(C)o3)nc2cc1OCCCN1CCCC1` (stereo not drawn), the LC50 with THLE-2 turned out to be 1980 nM.

As to `CCc1ccc(-c2cc(NCC3CCN(C)CC3)c3cc(OC)c(OCCCN4CCCC4)cc3n2)o1`, the results for the remaining at 20 min, 1 µM in data set [1] and in data set [2] were 69% and 59.1%, respectively. Besides, the LC50 in the data set with THLE-2 is 954 nM.

With `COc1cc2c(NC3CC4(CCN(C)CC4)C3)cc(-c3ccc(C)o3)nc2cc1OCC1CCN(C)CC1`, the 50% lethal concentration (LC50) with THLE-2 is 2530 nM.

With `COc1cc2c(NC3CCN(C)CC3)cc(-c3ccc(C)o3)nc2cc1OC1CC2(C1)CN(C)C2`, the remaining at 20 min, 1 µM in data set [1] came to 49.8%; in data set [2], 43.3%. In the data set on THLE-2, the LC50 came to 698 nM.

In the case of `Cc1ccc(-c2cc(NC3CCN(C)CC3)c3cc(Cl)c(OCCCN4CCCC4)cc3n2)o1`, the remaining at 20 min, 1 µM in data set [1] and in data set [2] was 81.7% each time. Moreover, the LC50 in the data set with THLE-2 is on record as 2310 nM.

As to `COc1cc2c(NC3CC4(CCN(C)C4)C3)cc(-c3ccc(C)o3)nc2cc1OCCCN1CCCC1` (stereo not drawn), in the data set on THLE-2, the LC50 was found to be 8380 nM.

In the case of `COc1cc2c(NC3CC4(CCN(C(C)C)CC4)C3)cc(-c3ccc(C)o3)nc2cc1OC1CC2(C1)CN(C)C2` (stereo not drawn), the LC50 in the data set on THLE-2 is recorded as 4650 nM.

With `COc1cc2c(NC3CCN(C)C(=O)C3)cc(-c3ccc(C)o3)nc2cc1OCCCN1CCCC1` (stereo not drawn), the remaining at 20 min, 1 µM stood at 82.7% in data set [1] and 71.9% in data set [2]. The LC50 in the data set with THLE-2 worked out at 7950 nM.
